# According to US9981964B2 (Agency for Science, Technology and Research, priority 2013, dated 2018):
# “Also recorded” adds a separate entry of the source. Read-outs that look alike come from different tables or passages of the source.
# Assays:
# MMTV-Wnt1 tumor = format: in vivo, BALBc mice; conditions: for % T/C / % TGI / NTRD / T/C / TRD: Day 14
# Experimental: 8-10 weeks old Female BALBc mice were anesthetised with 150 mg/kg Ketamine +75 mg/kg Xylazine. Under aseptic conditions, skin near the 4th mammary fat pad was incised, Mammary fat pad was tweaked with forceps and tumor fragment ˜2 mm^3 was implanted. The incision was closed using a tissue adhesive. Animals were randomised into groups of eight and treated daily with the test compounds for 14 days. Tumors were measured in two dimensions using calipers, and volume was calculated using the formula: Tumor Volume (mm^3)=[…]. Maximum tumor volume limit was 2000 mm^3.
# mammalian PORCN = experiment: PORCN-null HT1080 cells transfected with mammalian PORCN, WNT3A and STF reporter, luciferase; format: cell-based; conditions: STF luciferase, FIG. 1
# Experimental: PORCN-null HT1080 cells were transfected with mammalian or Xenopus PORCN expression plasmids, along with WNT3A, STF reporter and mCherry as transfection control. 6 hours after transfection, cells were treated with the compounds or DMSO as indicated, and the following day assayed for luciferase. Xenopus PORCN was resistant to the inhibitory effects of compounds.
# CFPAC-1 cells = experiment: Soft agar colony formation assay, CFPAC-1; format: cell-based; conditions: for IC50: Homo sapiens
# Experimental: (§1) AsPC-1 cells were maintained in RPMI164 supplemented with 10% FBS, 2 mM L-glutamine and P/S (100 units/ml penicillin and 100 μg/ml streptomycin). HPAF-II cells were maintained in MEM (Eagles') supplemented with 10% FBS, 2 mM L-glutamine and P/S (100 units/ml penicillin and 100 μg/ml streptomycin). CFPAC-1 cells were maintained in Iscove MEM supplemented with 10% FBS, 2 mM L-glutamine and P/S (100 units/ml penicillin and 100 μg/ml streptomycin).
# (§2) 600 μl of 0.6% agar was added to 24-well plate to form the base layer. Then a middle layer of 0.36% agar (containing 5000 cells and serially diluted compound) was added on to the base layer. Finally 500 μl of fresh growth medium was added to the top of the middle layer. The plates were incubated at 37° C. with 5% carbon dioxide in a humidified incubator for 2 weeks. Formation of colonies was observed using a light microscope. When the colony size was larger than 500 μm, 70 μl MTT (5 mg/ml) was added to each well and the plates were incubated at 37° C. for at least 2 hours. Colonies were counted with GelCount® instrument. The colony counts were plotted against compound concentrations using the GraphPad Prism software. The software was also used to perform non-linear curve fitting and calculation of compound concentration that inhibited 50% colony formation.
# HPAF-II cells = experiment: Soft agar colony formation assay, HPAF-II; format: cell-based; conditions: for IC50: Homo sapiens
# Experimental: as §1, §2
# HEK293-STF3A cells = experiment: STF3A assay (STF luciferase reporter in Wnt3A-expressing HEK293 cells); format: cell-based; conditions: Homo sapiens, 24 h, 1 day of treatment
# Procedure, shortened: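 HEK293 cells carrying the STF reporter and expressing Wnt3A, seeded 2×10^4 per well overnight, then treated 1 day with compound at final 50 μM to 1.5 nM. Luciferase activity read by luminescence after Steady-Glo reagent, 10 min at room temperature.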
# Palmitoylation of Wnt3a = experiment: Wnt3A palmitoylation assay (HeLa cells over-expressing V5-Wnt3a, alkyne palmitate, click chemistry); format: cell-based; conditions: 100 nM compound
# Experimental: The assay used to determine the inhibition of the palmitoylation of Wnts by compound was described by Yap et al, (Yap M C, Kostiuk M A, Martin D D, Perinpanayagam M A, Hak P G, Siddam A, Majjigapu J R, Rajaiah G, Keller B O, Prescher J A, Wu P, Bertozzi C R, Falck J R, Berthiaume L G. 2010. Rapid and selective detection of fatty acylated proteins using omega-alkynyl-fatty acids and click chemistry. J Lipid Res. 51(6):1566-1580) with some modification. 3×10^6 HeLa cells were seeded in 10 cm culture dish and incubated at 37° C. overnight. […] After six hours, the cells were washed with PBS and treated with 100 μM alkyne palmitate in medium with 5% BSA. 100 nM compound or DMSO was added and the cells were incubated overnight at 37° C. The cells were lyzed and 600 μg cell lysate was collected and incubated with anti-V5 antibody (Invitrogen) followed by the pull down of V5-Wnt3a with the addition of Protein A/G agarose beads (Thermo scientific). The pulled down lysates containing V5-Wnt3a was click-reacted with biotin-azide (Invitrogen). The biotin-labelled protein lysate was then separated on SDS-PAGE and transferred to a nitrocellulose membrane. The membrane was incubated with primary anti-V5 antibody, followed by secondary anti-mouse Dylight 680 (Thermo scientific) to detect V5-Wnt3a. […]
# AsPC-1 cells = experiment: Soft agar colony formation assay, AsPC-1; format: cell-based; conditions: for IC50: Homo sapiens
# Experimental: as §1, §2
structure (smiles),measurement,setting,value
"O=C(CN1CCCC2=C1C(=O)N(C1CC1)C2=O)Nc1ccc(-c2cccnc2)nn1 [Compound 43, 2-(6-cyclopropyl-5,7-dioxo-2,3,4,5,6,7-hexahydro-1H-pyrrolo[3,4-b]pyridin-1-yl)-N-(6-(pyridin-3-yl)pyridazin-3-yl)acetamide]",% T/C,MMTV-Wnt1 tumor; 1 mg/Kg daily,77.5%
same,% TGI,MMTV-Wnt1 tumor; 1 mg/Kg daily,24%
same,NTRD,MMTV-Wnt1 tumor; 1 mg/Kg daily,0/8
same,T/C,MMTV-Wnt1 tumor; 1 mg/Kg daily,0.775
same,TRD,MMTV-Wnt1 tumor; 1 mg/Kg daily,0/8
same,% T/C,MMTV-Wnt1 tumor; 3 mg/Kg daily,33.7%
same,% TGI,MMTV-Wnt1 tumor; 3 mg/Kg daily,72%
same,NTRD,MMTV-Wnt1 tumor; 3 mg/Kg daily,0/8
same,T/C,MMTV-Wnt1 tumor; 3 mg/Kg daily,0.337
same,TRD,MMTV-Wnt1 tumor; 3 mg/Kg daily,0/8
same,% T/C,MMTV-Wnt1 tumor; 10 mg/Kg daily,18.5%
same,% TGI,MMTV-Wnt1 tumor; 10 mg/Kg daily,97%
same,NTRD,MMTV-Wnt1 tumor; 10 mg/Kg daily,0/8
same,T/C,MMTV-Wnt1 tumor; 10 mg/Kg daily,0.185
same,TRD,MMTV-Wnt1 tumor; 10 mg/Kg daily,0/8
same,tumor growth in treated mice,"MMTV-Wnt1 tumor; daily treatment for 14 days, FIG. 2 and FIG. 3",decreased tumor growth in all the treated mice
same,inhibition of the activity of mammalian porcupine,mammalian PORCN,inhibit the activity of mammalian porcupine; also recorded: inhibition of the activity of mammalian porcupine
same,Maximum inhibition,"CFPAC-1 cells; CFPAC-1, colony formation",67%
same,IC50,"CFPAC-1 cells; 336 h, CFPAC-1, 50% colony growth inhibition, 2 weeks, read-out: Test 1 IC50",300 nM
same,IC50,"CFPAC-1 cells; 336 h, CFPAC-1, 50% colony growth inhibition, 2 weeks, read-out: Test 2 IC50",140 nM
same,IC50,"CFPAC-1 cells; CFPAC-1, mean of two independent experiments, read-out: Mean IC50",220 nM
same,IC50,"HPAF-II cells; 336 h, 50% colony growth inhibition, 2 weeks, read-out: Test 1 IC50",4 nM
same,IC50,"HPAF-II cells; 336 h, 50% colony growth inhibition, 2 weeks, read-out: Test 2 IC50",2 nM
same,IC50,"HPAF-II cells; mean of two independent experiments, read-out: Mean IC50",3 nM
same,Maximum inhibition,HPAF-II cells; colony formation,100%
same,IC50,HEK293-STF3A cells,< 100 nM
same,inhibition of palmitoylation of Wnt3a,Palmitoylation of Wnt3a,inhibited; also recorded: inhibition of Palmitoylation of Wnt3a
same,Maximum inhibition,"AsPC-1 cells; AsPC-1, colony formation",79%
same,IC50,"AsPC-1 cells; ASPC1, 336 h, AsPC-1, 50% colony growth inhibition, 2 weeks, read-out: Test 1 IC50",4 nM
same,IC50,"AsPC-1 cells; ASPC1, 336 h, AsPC-1, 50% colony growth inhibition, 2 weeks, read-out: Test 2 IC50",5 nM
same,IC50,"AsPC-1 cells; ASPC1, AsPC-1, mean of two independent experiments, read-out: Mean IC50",5 nM
